Reference: patent US12296053B2, “Nanomaterials comprising triols” (Beam Therapeutics Inc., priority 2022, dated 2025)

How the values were obtained:
[1] = tested on: ALAS1 target site; assay: Base editing in liver by LNP-delivered ABE mRNA and sgRNA, targeted deep sequencing; format: in vivo; settings: LNP with the ionizable lipid, ABE mRNA + sgRNA targeting ALAS1 1:1; tail vein injection, Balb/c mice; 0.05 mg/kg; tissues four to six days post-dose
Method: (§1) Lipid nanoparticle components were dissolved in 100% ethanol at specified lipid component molar ratios. mRNA encoding an adenine base editor and a chemically-modified sgRNA was dissolved at a mass ratio of 1:1 in 50 mM citrate, pH 4.0, resulting in a concentration of NA cargo of approximately 0.1 mg/mL.
(§2) LNP preparations were formulated with molar ratios of 47.5% Ionizable Lipid: 40% Cholesterol: 2.5% PEG2000-DMG: 10% DSPC total lipid to NA molar ratio of 6 to 12.
(§3) LNP preparations were formed by microfluidic mixing of the lipid and NA solutions using Precision Nanosystems NanoAssemblr Ignite series Instruments, according to the manufacturer's protocol.
(§4) A 3:1 ratio of aqueous to organic solvent was maintained during mixing using differential flow rates. After mixing, LNP preparations were collected and diluted in TBS (approximately 7:1 v/v), and further buffer exchange was conducted using dialysis in TBS at 4° C. for 8 to 24 hours against a 20 kDa filter. After this initial dialysis, each individual LNP preparation was characterized via dynamic light scattering (DLS) to measure size and polydispersity. pKa of a subpopulation of LNP preparations was measured via TNS assay.
Male Balb/C mice aged approximately 8-12 weeks were used in the experiments described herein. […]
Age-matched mice were also used to administer vehicle (1×TBS) via tail vein injection as a control. Four to six days post-dose, tissues including liver, spleen, and bone marrow were collected. Base editing was determined by performing targeted deep sequencing analysis at the ALAS1 target site using extracted genomic DNA. Genomic DNA was isolated and fragmented and adapter-ligated using the Nextera DNA Flex Library Prep Kit (Illumina) using the 96-well plate Nextera indexing primers (Illumina), according to the manufacturer's instructions. Library size and concentration was confirmed by Fragment Analyzer (Agilent) and analyzed for whole genome sequencing using an Illumina HiSeq.

[2] = LNP hydrodynamic diameter and polydispersity index by dynamic light scattering (DLS); format: physicochemical; settings: for Diameter (nm): hydrodynamic diameter of the LNP preparation with the ionizable lipid; for PDI: polydispersity index of the LNP preparation with the ionizable lipid
Method: as §4
DLS-LNP preparation hydrodynamic diameter and polydispersity index (PDI) was measured using high throughput dynamic light scattering (DLS) (DynaPro plate reader II, Wyatt). LNP preparations were diluted 1×PBS to an appropriate concentration and analyzed.

[3] = Encapsulation efficiency of LNP preparations (Ribogreen assay; Qubit, unlysed and lysed LNPs); format: physicochemical; settings: LNP preparation with the ionizable lipid, ABE mRNA:sgRNA 1:1, except 7-1, 7-2, 7-6, 7-10 (unlysed and lysed LNPs, Qubit)
Method: as §1, §2, §3
With the exception of LNPs comprising ionizable lipids 7-1, 7-2, 7-6, and 7-10, RNA concentration and encapsulation efficiency were determined by Ribogreen assay (BioTek Synergy LX plate reader). For LNPs comprising ionizable lipids 7-1, 7-2, 7-6, and 7-10, RNA concentration was determined by Qubit microRNA kit (for siRNA) or HS RNA kit (for mRNA) per manufacturer's instructions, and encapsulation efficiency was determined by measuring unlysed and lysed LNPs.

C=CCCCCCC(CCCCCC=C)OC(=O)CCCCCC(=O)OCC(COC(=O)CCC(CCCCCC)OC(=O)NCCN1CCCC1)COC(=O)CCC(OCCCC/C=C\CC)OCCCC/C=C\CC (stereo not shown) [Compound 7-34, 1-(3-((4,4-bis(((Z)-oct-5-en-1-yl)oxy)butanoyl)oxy)-2-(((4-(((2-(pyrrolidin-1-yl)ethyl)carbamoyl)oxy)decanoyl)oxy)methyl)propyl) 7-(pentadeca-1,14-dien-8-yl) heptanedioate]
% Editing in Liver (0.05 mpk) [1]: 1.6%
Diameter (nm) [2]: 54.35 nm
PDI [2]: 0.05
Encapsulation Efficiency (%) [3]: 98.1%

C=CCCCCCC(CCCCCC=C)COC(=O)CCCCC(=O)OCC(COC(=O)CCC(CCCCCC)OC(=O)NCCN1CCCC1)COC(=O)CCC(OCCCC/C=C\CC)OCCCC/C=C\CC (stereo not shown) [Compound 7-39, 3-((4,4-bis(((Z)-oct-5-en-1-yl)oxy)butanoyl)oxy)-2-(((4-(((2-(pyrrolidin-1-yl)ethyl)carbamoyl)oxy)decanoyl)oxy)methyl)propyl (2-(hept-6-en-1-yl)non-8-en-1-yl) adipate]
% Editing in Liver (0.05 mpk) [1]: 1.4%
Diameter (nm) [2]: 53.4 nm
PDI [2]: 0.08
Encapsulation Efficiency (%) [3]: 97.4%

CC/C=C\CCCCOC(CCC(=O)OCC(COC(=O)CCCCCCOC(=O)C(CCCC)CCCCCC)COC(=O)CCC(CCCCCC)OC(=O)NCCN(C)C)OCCCC/C=C\CC (stereo not shown) [Compound 7-40, 3-((4,4-bis(((Z)-oct-5-en-1-yl)oxy)butanoyl)oxy)-2-(((7-((2-butyloctanoyl)oxy)heptanoyl)oxy)methyl)propyl 4-(((2-(dimethylamino)ethyl)carbamoyl)oxy)decanoate]
% Editing in Liver (0.05 mpk) [1]: 1.9%
Diameter (nm) [2]: 54.1 nm
PDI [2]: 0.09
Encapsulation Efficiency (%) [3]: 96.8%

CC/C=C\CCCCOC(CCC(=O)OCC(COC(=O)CCCCCC(=O)OC(CCCCCCC)CCCCCCC)COC(=O)CCC(CCCCC)OC(=O)NCCN1CCCC1)OCCCC/C=C\CC (stereo not shown) [Compound 7-35, 1-(3-((4,4-bis(((Z)-oct-5-en-1-yl)oxy)butanoyl)oxy)-2-(((4-(((2-(pyrrolidin-1-yl)ethyl)carbamoyl)oxy)nonanoyl)oxy)methyl)propyl) 7-(pentadecan-8-yl) heptanedioate]
% Editing in Liver (0.05 mpk) [1]: 3.1%
Diameter (nm) [2]: 64.25 nm
PDI [2]: 0.12
Encapsulation Efficiency (%) [3]: 96.2%

CC/C=C\CCCCOC(CCC(=O)OCC(COC(=O)CCCCCCOC(=O)C(CCCC)CCCCCC)COC(=O)CCC(CCCCCC)OC(=O)NCCN1CCCCC1)OCCCC/C=C\CC (stereo not shown) [Compound 7-44, 3-((4,4-bis(((Z)-oct-5-en-1-yl)oxy)butanoyl)oxy)-2-(((7-((2-butyloctanoyl)oxy)heptanoyl)oxy)methyl)propyl 4-(((2-(piperidin-1-yl)ethyl)carbamoyl)oxy)decanoate]
% Editing in Liver (0.05 mpk) [1]: 0.1%
Diameter (nm) [2]: 68.8 nm
PDI [2]: 0.08
Encapsulation Efficiency (%) [3]: 89.2%

CC/C=C\CCCCOC(CCC(=O)OCC(COC(=O)CCCCCCC(=O)OCCC(CCCCC)CCCCC)COC(=O)CCC(CCCCCC)OC(=O)NCCN1CCCC1)OCCCC/C=C\CC (stereo not shown) [Compound 7-19, 1-(3-((4,4-bis(((Z)-oct-5-en-1-yl)oxy)butanoyl)oxy)-2-(((4-(((2-(pyrrolidin-1-yl)ethyl)carbamoyl)oxy)decanoyl)oxy)methyl)propyl) 8-(3-pentyloctyl) octanedioate]
% Editing in Liver (0.05 mpk) [1]: 1.7%
Diameter (nm) [2]: 54.15 nm
PDI [2]: 0.12
Encapsulation Efficiency (%) [3]: 97.2%

CC/C=C\CCCCOC(CCC(=O)OCC(COC(=O)CCCCCC(=O)OCCC(CCCCC)CCCCC)COC(=O)CCC(CCC)OC(=O)NCCN1CCCC1)OCCCC/C=C\CC (stereo not shown) [Compound 7-25, 1-(3-((4,4-bis(((Z)-oct-5-en-1-yl)oxy)butanoyl)oxy)-2-(((4-(((2-(pyrrolidin-1-yl)ethyl)carbamoyl)oxy)heptanoyl)oxy)methyl)propyl) 7-(3-pentyloctyl) heptanedioate]
% Editing in Liver (0.05 mpk) [1]: 0.9%
Diameter (nm) [2]: 78.75 nm
PDI [2]: 0.11
Encapsulation Efficiency (%) [3]: 97.8%

CC/C=C\CCCCOC(CCC(=O)OCC(COC(=O)CCCCCC(=O)OCC(CCCC)CCCCCC)COC(=O)CCC(CCCCCC)OC(=O)NCCN1CCCC1)OCCCC/C=C\CC (stereo not shown) [Compound 7-32, 1-(3-((4,4-bis(((Z)-oct-5-en-1-yl)oxy)butanoyl)oxy)-2-(((4-(((2-(pyrrolidin-1-yl)ethyl)carbamoyl)oxy)decanoyl)oxy)methyl)propyl) 7-(2-butyloctyl) heptanedioate]
% Editing in Liver (0.05 mpk) [1]: 0.6%
Diameter (nm) [2]: 53.30 nm
PDI [2]: 0.10
Encapsulation Efficiency (%) [3]: 96.1%

CCCCCCCCOC(CCC(=O)OCC(COC(=O)CCCCC(=O)OCCC(CCCCCC)CCCCCC)COC(=O)CCC(CCCCCC)OC(=O)NCCN1CCCC1)OCCCCCCCC (stereo not shown) [Compound 7-17, 3-((4,4-bis(octyloxy)butanoyl)oxy)-2-(((4-(((2-(pyrrolidin-1-yl)ethyl)carbamoyl)oxy)decanoyl)oxy)methyl)propyl (3-hexylnonyl) adipate]
% Editing in Liver (0.05 mpk) [1]: 1.0%
Diameter (nm) [2]: 57.11 nm
PDI [2]: 0.09
Encapsulation Efficiency (%) [3]: 98.5%

CC/C=C\CCCCOC(CCC(=O)OCC(COC(=O)CCCCCCOC(=O)C(CCCC)CCCCCC)COC(=O)CCC(CCCCCCC)OC(=O)NCCN1CCCC1)OCCCC/C=C\CC (stereo not shown) [Compound 7-50, 3-((4,4-bis(((Z)-oct-5-en-1-yl)oxy)butanoyl)oxy)-2-(((7-((2-butyloctanoyl)oxy)heptanoyl)oxy)methyl)propyl 4-(((2-(pyrrolidin-1-yl)ethyl)carbamoyl)oxy)undecanoate]
% Editing in Liver (0.05 mpk) [1]: 4.0%
Diameter (nm) [2]: 53.45 nm
PDI [2]: 0.09
Encapsulation Efficiency (%) [3]: 96.6%

CC/C=C\CCCCOC(CCC(=O)OCC(COC(=O)CCCCCCOC(=O)C(CCCC)CCCCCC)COC(=O)CCC(CCCC)OC(=O)NCCN1CCCC1)OCCCC/C=C\CC (stereo not shown) [Compound 7-22, 3-((4,4-bis(((Z)-oct-5-en-1-yl)oxy)butanoyl)oxy)-2-(((7-((2-butyloctanoyl)oxy)heptanoyl)oxy)methyl)propyl 4-(((2-(pyrrolidin-1-yl)ethyl)carbamoyl)oxy)octanoate]
% Editing in Liver (0.05 mpk) [1]: 5.6%
Diameter (nm) [2]: 65.85 nm
PDI [2]: 0.06
Encapsulation Efficiency (%) [3]: 97.3%

CC/C=C\CCCCOC(CCC(=O)OCC(COC(=O)CCCCCCOC(=O)C(CCCC)CCCCCC)COC(=O)CCC(CCCCCC)OC(=O)OCC1CCCN(CC)C1)OCCCC/C=C\CC (stereo not shown) [Compound 7-46, 3-((4,4-bis(((Z)-oct-5-en-1-yl)oxy)butanoyl)oxy)-2-(((7-((2-butyloctanoyl)oxy)heptanoyl)oxy)methyl)propyl 4-((((1-ethylpiperidin-3-yl)methoxy)carbonyl)oxy)decanoate]
% Editing in Liver (0.05 mpk) [1]: 1.1%
Diameter (nm) [2]: 82.35 nm
PDI [2]: 0.13
Encapsulation Efficiency (%) [3]: 93.7%

C=CCCCCCC(CCCCCC=C)OC(=O)CCCCCC(=O)OCC(COC(=O)CCC(CCCCC)OC(=O)NCCN1CCCC1)COC(=O)CCC(OCCCC/C=C\CC)OCCCC/C=C\CC (stereo not shown) [Compound 7-33, 1-(3-((4,4-bis(((Z)-oct-5-en-1-yl)oxy)butanoyl)oxy)-2-(((4-(((2-(pyrrolidin-1-yl)ethyl)carbamoyl)oxy)nonanoyl)oxy)methyl)propyl) 7-(pentadeca-1,14-dien-8-yl) heptanedioate]
% Editing in Liver (0.05 mpk) [1]: 6.5%
Diameter (nm) [2]: 64.85 nm
PDI [2]: 0.11
Encapsulation Efficiency (%) [3]: 96.7%
